Results taken from patent US10494334B2, “Compounds to inhibit calcium/calmodulin dependent protein kinase II and applications thereof” (priority 2018, dated 2019).

Experiments:
[1] = system: BE(2)C cells; assay: XTT cell proliferation assay; type: cell-based; conditions: Homo sapiens, 6.25 μM compound, compared to solvent control
Experimental: The cytotoxicity of candidate compounds to BE(2)C cells was evaluated by use of the cytotoxicity detection kit (LDH) (Roche), cell proliferation kit (XTT) (Roche), and Trypan blue cell counting assay. Briefly, cells were treated overnight with the candidate compounds at the indicated doses and subjected to the three assays. For LDH and XTT assays, light absorbance of the sample at 490 nm was determined by using an enzyme-linked immunosorbent assay (ELISA) reader (Molecular Devices). For Trypan blue cell counting assay, the number of viable cells was determined by use of haemocytometer. Data was normalized to solvent control and presented as a percentage.

[2] = system: DENV-2-eGFP reporter virus; assay: Cell-based anti-DENV-2 screening with DENV-2-eGFP reporter virus in BE(2)C cells; set-up: species or system type 2 dengue virus; conditions: Dengue virus, DENV2, BE(2)-C, 24 h, read-out: DENV-2 infection %
[3] = system: DENV-2; assay: Virus binding/entry assays, DENV-2 on BE(2)C cells; type: cell-based, type 2 dengue virus
[4] = system: DENV-2 PL046 strain; assay: Antiviral assay, wild type DENV-2 in BE(2)C cells (IFA, Western blotting, plaque-forming assay); type: cell-based, type 2 dengue virus; conditions: three hours of treatment during viral adsorption (0-3 hpi), MOI 1, Western blot
[5] = system: DENV-2 NGC-N strain; assay: Animal study, DENV-2-infected Stat1-deficient mice; type: in vivo; conditions: for overall survival: 6-day treatment
Experimental: (§1) The mouse experiments were approved by the Academia Sinica Institutional Animal Care and Use Committee and performed in accordance with the guidelines. Infection was performed in mice under isoflurane anesthesia to minimize animal suffering. The DENV-2 New Guinea C strain serially passaged in mouse brain (NGC-N), kindly provided by Dr. Ching-Juh Lai (National Institutes of Health, USA) and ZIKV PRVABC59 strain were used in the animal study. Groups of 6-week-old Stat1^−/− mice were intravenously infected in the tail with 1×10^5 PFU of DENV-2 per mouse or subcutaneously infected in the footpad with 5×10^4 PFU of ZIKV per mouse. […] The mice were checked daily for severe symptoms including limb paralysis. Euthanasia of mice with severe limb paralysis was performed as the endpoint of animal survival. Mice survival was presented as percentage of survival. Mouse serum samples were collected on day 3 after infection by phlebotomy from facial vein, and the virus load was determined by plaque-forming assay.
(§2) Data are presented as mean±standard deviation and were compared by ANOVA and Bonferroni post-hoc test unless otherwise specified. Statistical significance was set at P values of <0.05 or <0.01. A survival curve was descriptively analyzed by use of SigmaPlot v10.0 (Systat software). The median survival time (T50) and P values, based on log-rank test, were determined by use of Prism v5.0 (GraphPad software). For Western blotting, the band intensity was quantified by use of ImageJ software (National Institutes of Health).

[6] = system: ZIKV; assay: Virus binding/entry assays, ZIKV on BE(2)C cells
Experimental: For the virus entry assay, BE(2)C cells were first adsorbed with DENV-2 or ZIKV at 4° C. for 90 minutes. […] Thereafter, the cells were treated with an acidic glycine solution (0.1 M, pH=3) for 5 minutes to inactivate non-internalized virus and washed with cold Hank's balanced salt solution (HBSS). The cells were harvested with cell scrapers, and the adsorbed viruses were released by passing the cells through a 27-G needle 7 times. Cell lysates were centrifuged at 12,000 rpm for 1 minute, and the supernatant was used for plaque-forming assay to determine the level of virus binding and/or entry.

[7] = system: ZIKV PRVABC59 strain; assay: Animal study, ZIKV-infected Stat1-deficient mice; type: in vivo; conditions: for median survival time (T50): 8 mg/kg of body weight/day oral
Experimental: as §1, §2

[8] = target: T1, purified human CaMKII (Homo sapiens, UniProt Q9UQM7); assay: CaMKII biochemical assay (CycLex CaM kinase II Assay Kit); conditions: syntide-2 substrate, Ca2+, calmodulin, Mg2+, ATP; normalized to solvent control
T1 construct: MBL Internationl Corp (assay kit)
T1 sequence (Q9UQM7 with tags, fused parts or gaps): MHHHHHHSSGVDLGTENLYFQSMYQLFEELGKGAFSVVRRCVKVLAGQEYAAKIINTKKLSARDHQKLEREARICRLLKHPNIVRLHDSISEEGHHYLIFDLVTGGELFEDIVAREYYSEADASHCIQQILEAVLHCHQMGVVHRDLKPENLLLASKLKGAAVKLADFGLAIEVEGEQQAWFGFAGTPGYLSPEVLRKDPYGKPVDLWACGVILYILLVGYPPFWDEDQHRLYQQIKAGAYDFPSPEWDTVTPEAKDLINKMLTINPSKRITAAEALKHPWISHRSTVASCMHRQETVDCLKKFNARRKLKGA
Experimental: A commercial CaMKII inhibitor, KN-62 (Selleckchem, S7422) was used as a positive control. Kinase reaction buffer without Ca^2+ was used as a negative control. The assay wells of the microtiter plate were then incubated with HRP-conjugated-anti-phospho-syntide-2 antibody, followed by addition of syntide-2. The phosphorylation reaction was stopped after incubation at room temperature for 15 minutes. Sample absorbance at 450 nm was determined by use of an ELISA reader (Molecular Devices). Data was normalized to solvent control and presented as a percentage.

[9] = 37° C. for 60 minutes after adsorption, dose-dependent
[10] = adsorption at 4° C. for 90 minutes
[11] = 8-hours-delay treatment, 4 mg/kg of body weight/day oral
[12] = immediate treatment, 2 mg/kg of body weight/day oral
[13] = immediate treatment, 4 mg/kg of body weight/day oral
[14] = serum on day 3 after infection, plaque-forming assay, dose-dependent

Q: What does the source list for `COc1ccc(S(=O)(=O)N(CCCC(=O)C2C3CC4CC(C3)CC2C4)c2ccccc2)cc1` (centres unmarked) [Compound 10, N-(4-(adamantan-2-yl)-4-oxobutyl)-4-methoxy-N-phenylbenzenesulfonamide]?
A: viability at 6.25 µM [1]: 96.7%; melting point: 117 to 118 °C; activity at 3.125 µM [2]: 51.1%

Q: For `COc1ccc(S(=O)(=O)N(CCCC(=O)C2CCCCC2)c2ccccc2)cc1` [Compound 6, N-(4-cyclohexyl-4-oxobutyl)-4-methoxy-N-phenylbenzenesulfonamide], which viability at 6.25 µM [1] is on record?
A: The viability at 6.25 µM was 107%.

Q: What about the melting point of the same compound?
A: The melting point was 81 to 82 °C.

Q: And the activity at 3.125 µM [2]?
A: The activity at 3.125 µM was 63.3%.

Q: With `COc1ccc(S(=O)(=O)NCCCC(=O)c2ccc(F)cc2)cc1` [Compound 3] as the compound, how does the melting point read?
A: Its melting point is 84 to 85 °C.

Q: For `COc1ccc(S(=O)(=O)N(CCCC(=O)C2CCCC2)c2ccccc2)cc1` [Compound 8, N-(4-cyclopentyl-4-oxobutyl)-4-methoxy-N-phenylbenzenesulfonamide], which melting point is on record?
A: The melting point was 89 to 90 °C.

Q: And the activity at 3.125 µM [2]?
A: The activity at 3.125 µM was 25.1%.

Q: What does the source list for `COc1ccc(S(=O)(=O)N(CCCC(=O)C2CCCCCC2)c2ccccc2)cc1` [Compound 9, N-(4-cycloheptyl-4-oxobutyl)-4-methoxy-N-phenylbenzenesulfonamide]?
A: level of DENV-2 entry [3, 9]: significantly reduced; DENV-2 binding to cells [3, 10]: no effect; viral-NS3 expression [4]: dose-dependently reduced; median survival time (T50) ([5]; 8-hours-delay treatment, 2 mg/kg of body weight/day oral): 14 days; median survival time (T50) [5, 11]: 22 days; mice protected from mortality [5, 11]: 40%; median survival time (T50) [5, 12]: 15 days; overall animal survival [5, 12]: minor effect; overall survival [5, 13]: 60%; overall survival ([5]; immediate treatment, 8 mg/kg of body weight/day oral): 60%; viral load [5, 14]: significantly reduced; level of ZIKV entry [6, 9]: significantly reduced; level of ZIKV binding/entry ([6]; MOI 10, 90 minutes at room temperature): significantly reduced; ZIKV binding to cells [6, 10]: no effect; overall survival ([7]; 8-hours-delay treatment): minor effect; median survival time (T50) ([7]; 8-hours-delay treatment): 10 days; overall survival [7, 13]: did not improve; median survival time (T50) ([7]; immediate treatment): 11 days; viral load [7, 14]: significantly reduced; activity at 3.125 µM [2]: 9.6%

Q: Which viability at 6.25 µM [1] does the source give for `COc1ccc(S(=O)(=O)N(CCCC(C)=O)c2ccccc2)cc1` [Compound 5, 4-methoxy-N-(4-oxopentyl)-N-phenylbenzenesulfonamide] here?
A: The viability at 6.25 µM was 106%.

Q: And the melting point?
A: The melting point was 81 to 82 °C.

Q: What about the activity at 3.125 µM [2] of the same compound?
A: The activity at 3.125 µM was 101%.

Q: With `COc1ccc(S(=O)(=O)N(CCCC(=O)C2CCCCCC2)C2CCCCC2)cc1` [Compound 14, N-(4-cycloheptyl-4-oxobutyl)-N-cyclohexyl-4-methoxybenzenesulfonamide] as the compound, how does the viability at 6.25 µM [1] read?
A: The viability at 6.25 µM was 97.5%.

Q: What about the activity at 3.125 µM [2] of the same compound?
A: Its activity at 3.125 µM is 65.7%.

Q: What does the source list for `COc1ccc(S(=O)(=O)N(C)CCCC(=O)c2ccc(F)cc2)cc1` [Compound 4, N-(4-(4-fluorophenyl)-4-oxobutyl)-4-methoxy-N-methylbenzenesulfonamide]?
A: viability at 6.25 µM [1]: 106%; melting point: 89 to 90 °C; activity at 3.125 µM [2]: 101%

Q: With `COc1ccc(S(=O)(=O)N(CCCC(=O)C2CCC2)c2ccccc2)cc1` [Compound 7, N-(4-cyclobutyl-4-oxobutyl)-4-methoxy-N-phenylbenzenesulfonamide] as the compound, how does the viability at 6.25 µM [1] read?
A: Its viability at 6.25 µM is 93.9%.

Q: What about the activity at 3.125 µM [2] of the same compound?
A: Its activity at 3.125 µM is 33%.

Q: What about the IC50 [8] of the same compound?
A: Its IC50 is roughly 600 nM.

Q: Which results are given for `COc1ccc(S(=O)(=O)N(CCCC(=O)C2CCCCCC2)c2ccc(C3CCCCC3)cc2)cc1` [Compound 16, N-(4-cycloheptyl-4-oxobutyl)-N-(4-cyclohexylphenyl)-4-methoxybenzenesulfonamide]?
A: melting point: 103 to 104 °C; activity at 3.125 µM [2]: 13.8%

Q: Which results are given for `COc1ccc(S(=O)(=O)N(CCCC(=O)C2CCCCCC2)c2ccc3c(c2)CCCC3)cc1` [Compound 15, N-(4-cycloheptyl-4-oxobutyl)-4-methoxy-N-(5,6,7,8-tetrahydronaphthalen-2-yl)-benzenesulfonamide]?
A: viability at 6.25 µM [1]: 104%; melting point: 111 to 112 °C; activity at 3.125 µM [2]: 21.5%

Q: Which IC50 [8] does the source give for `CN([C@@H](Cc1ccc(OS(=O)(=O)c2cccc3cnccc23)cc1)C(=O)N1CCN(c2ccccc2)CC1)S(=O)(=O)c1cccc2cnccc12` [KN-62, reference compound] here?
A: Its IC50 is roughly 1030 nM.

Q: Which results are given for `O=C(CCCN(c1ccccc1)S(=O)(=O)c1ccc(Oc2ccccc2)cc1)C1CCCCCC1` [Compound 12, N-(4-cycloheptyl-4-oxobutyl)-4-phenoxy-N-phenylbenzenesulfonamide]?
A: viability at 6.25 µM [1]: 95.5%; melting point: 127 to 128 °C; activity at 3.125 µM [2]: 73.4%

Q: What does the source list for `Cc1ccc(S(=O)(=O)N(CCCC(=O)C2CCCCCC2)c2ccccc2)cc1` [Compound 13, N-(4-cycloheptyl-4-oxobutyl)-4-methyl-N-phenylbenzenesulfonamide]?
A: viability at 6.25 µM [1]: 99.5%; activity at 3.125 µM [2]: 76.9%

Q: For `COc1ccc(S(=O)(=O)N(CCCC(O)c2ccc(F)cc2)c2ccccc2)cc1` (centres unmarked) [Compound 2, N-(4-(4-fluorophenyl)-4-hydroxybutyl)-4-methoxy-N-phenylbenzenesulfonamide], which viability at 6.25 µM [1] is on record?
A: The viability at 6.25 µM was 76.3%.

Q: What about the activity at 3.125 µM [2] of the same compound?
A: The activity at 3.125 µM was 48.5%.

Q: What does the source list for `O=C(CCCN(c1ccccc1)S(=O)(=O)c1ccc(OC(F)(F)F)cc1)C1CCCC1` [Compound 11, N-(4-cyclopentyl-4-oxobutyl)-N-phenyl-4-(trifluoromethoxy)benzenesulfonamide]?
A: viability at 6.25 µM [1]: 92.4%; melting point: 69 to 70 °C; activity at 3.125 µM [2]: 118%

Q: What does the source list for `COc1ccc(S(=O)(=O)N(CCCC(=O)c2ccc(F)cc2)c2ccccc2)cc1` [Compound 1, N-(4-(4-fluorophenyl)-4-oxobutyl)-4-methoxy-N-phenylbenzenesulfonamide]?
A: viability at 6.25 µM [1]: 56.1%; melting point: 93 to 94 °C; activity at 3.125 µM [2]: 39.3%
